Data reported in paper PMC5218480 (PLoS ONE, 2017).

System: MV-4-11 cells
Assay: Gene expression microarray analysis (Affymetrix PrimeView) and GSEA
Type: cell-based, human
Set-up: RFU PODN (11730768_x_at) / Fold change /veh PODN (11730768_x_at) / RFU LINC00158 (11744669_a_at) / Fold change /veh LINC00158 (11744669_a_at) / RFU DUSP10 (11751237_a_at) / Fold change /veh DUSP10 (11751237_a_at) / RFU ID3 (11757404_x_at) / Fold change /veh ID3 (11757404_x_at) / RFU PLEKHG5 (11737974_s_at) / Fold change /veh PLEKHG5 (11737974_s_at) / RFU LRRC4B (11730491_at) / Fold change /veh LRRC4B (11730491_at) / RFU GIMAP4 (11747438_a_at) / Fold change /veh GIMAP4 (11747438_a_at) / RFU KRT8 (11758183_x_at) / Fold change /veh KRT8 (11758183_x_at) / RFU CNN1 (11734310_a_at) / Fold change /veh CNN1 (11734310_a_at) / RFU VPS37D (11726825_at) / Fold change /veh VPS37D (11726825_at) / RFU C10orf10 (11716522_x_at) / Fold change /veh C10orf10 (11716522_x_at) / RFU KIR2DL2 /// KIR2DL4 /// KIR2DL5A /// KIR2DL5B /// KIR2DS1 /// KIR2DS2 /// KIR2DS3 /// KIR2DS4 /// KIR3DL3 /// KIR3DL3 /// KIR3DS1 (11738374_at) / Fold change /veh KIR2DL2 /// KIR2DL4 /// KIR2DL5A /// KIR2DL5B /// KIR2DS1 /// KIR2DS2 /// KIR2DS3 /// KIR2DS4 /// KIR3DL3 /// KIR3DL3 /// KIR3DS1 (11738374_at) / RFU C1QL1 (11718748_at) / Fold change /veh C1QL1 (11718748_at) / RFU TMPRSS4 (11747572_a_at) / Fold change /veh TMPRSS4 (11747572_a_at) / RFU HAMP (11756126_x_at) / Fold change /veh HAMP (11756126_x_at) / RFU RNFT2 (11725882_a_at) / Fold change /veh RNFT2 (11725882_a_at) / RFU NR4A2 (11747474_a_at) / Fold change /veh NR4A2 (11747474_a_at) / RFU ABCC12 (11746883_a_at) / Fold change /veh ABCC12 (11746883_a_at) / RFU TMEM136 (11760407_x_at) / Fold change /veh TMEM136 (11760407_x_at) / RFU CLDN22 /// WWC2 (11732394_at) / Fold change /veh CLDN22 /// WWC2 (11732394_at) / RFU HLA-DPB1 (11760878_x_at) / Fold change /veh HLA-DPB1 (11760878_x_at) / RFU SPINT1 (11716480_a_at) / Fold change /veh SPINT1 (11716480_a_at) / RFU GAP43 (11754022_s_at) / Fold change /veh GAP43 (11754022_s_at) / RFU A4GNT (11735810_at) / Fold change /veh A4GNT (11735810_at) / RFU PRB3 (11715151_x_at) / Fold change /veh PRB3 (11715151_x_at) / RFU TUBB4B (11761932_at) / Fold change /veh TUBB4B (11761932_at) / RFU CAPN14 (11732068_a_at) / Fold change /veh CAPN14 (11732068_a_at) / RFU TMCC2 (11721928_a_at) / Fold change /veh TMCC2 (11721928_a_at) / RFU IRGQ (11745062_a_at) / Fold change /veh IRGQ (11745062_a_at) / RFU FAM174B (11720279_a_at) / Fold change /veh FAM174B (11720279_a_at) / RFU TMPRSS4 (11748680_a_at) / Fold change /veh TMPRSS4 (11748680_a_at) / RFU FAM212B (11763350_a_at) / Fold change /veh FAM212B (11763350_a_at) / RFU PLEKHG5 (11743358_a_at) / Fold change /veh PLEKHG5 (11743358_a_at) / RFU ZSCAN30 (11745921_a_at) / Fold change /veh ZSCAN30 (11745921_a_at) / RFU CMKLR1 (11741424_a_at) / Fold change /veh CMKLR1 (11741424_a_at) / RFU LOC101060620 /// MAPK8IP1 (11723275_at) / Fold change /veh LOC101060620 /// MAPK8IP1 (11723275_at) / RFU SPTSSB (11747773_x_at) / Fold change /veh SPTSSB (11747773_x_at) / RFU PRSS12 (11739890_at) / Fold change /veh PRSS12 (11739890_at) / RFU BIN1 (11741810_x_at) / Fold change /veh BIN1 (11741810_x_at) / RFU WNT11 (11732464_a_at) / Fold change /veh WNT11 (11732464_a_at) / RFU C10orf10 (11716521_a_at) / Fold change /veh C10orf10 (11716521_a_at) / RFU C5orf56 (11738089_at) / Fold change /veh C5orf56 (11738089_at) / RFU CYB561 (11721691_x_at) / Fold change /veh CYB561 (11721691_x_at) / RFU ANKRD19P (11752326_a_at) / Fold change /veh ANKRD19P (11752326_a_at) / RFU OR2T12 /// OR2T33 /// OR2T8 (11738714_s_at) / Fold change /veh OR2T12 /// OR2T33 /// OR2T8 (11738714_s_at) / RFU VCAN (11748164_a_at) / Fold change /veh VCAN (11748164_a_at) / RFU JSRP1 (11732532_at) / Fold change /veh JSRP1 (11732532_at) / RFU KRTAP10-11 (11738290_x_at) / Fold change /veh KRTAP10-11 (11738290_x_at) / RFU MYO3A (11730013_a_at) / Fold change /veh MYO3A (11730013_a_at) / RFU EBF3 (11725865_a_at) / Fold change /veh EBF3 (11725865_a_at) / RFU CAMK2N1 (11719241_x_at) / Fold change /veh CAMK2N1 (11719241_x_at) / RFU C5orf56 (11738088_a_at) / Fold change /veh C5orf56 (11738088_a_at) / RFU OLFML3 (11715873_a_at) / Fold change /veh OLFML3 (11715873_a_at) / RFU LOC100653217 /// NTM (11731650_a_at) / Fold change /veh LOC100653217 /// NTM (11731650_a_at) / RFU MAPK11 (11762145_a_at) / Fold change /veh MAPK11 (11762145_a_at) / RFU FIZ1 (11724087_x_at) / Fold change /veh FIZ1 (11724087_x_at) / RFU OASL (11726364_x_at) / Fold change /veh OASL (11726364_x_at) / RFU SOX15 (11748057_x_at) / Fold change /veh SOX15 (11748057_x_at) / RFU CD79A (11719716_a_at) / Fold change /veh CD79A (11719716_a_at) / RFU HIST1H1D (11736915_at) / Fold change /veh HIST1H1D (11736915_at) / RFU CASKIN2 (11723855_a_at) / Fold change /veh CASKIN2 (11723855_a_at) / RFU LOC730098 (11760151_x_at) / Fold change /veh LOC730098 (11760151_x_at) / RFU OR4N2 (11742367_at) / Fold change /veh OR4N2 (11742367_at) / RFU PRRT2 (11749266_a_at) / Fold change /veh PRRT2 (11749266_a_at) / RFU SNX32 (11753110_a_at) / Fold change /veh SNX32 (11753110_a_at) / RFU CDHR5 (11726645_a_at) / Fold change /veh CDHR5 (11726645_a_at) / RFU RCAN1 (11760418_a_at) / Fold change /veh RCAN1 (11760418_a_at) / RFU FAM167A (11723789_a_at) / Fold change /veh FAM167A (11723789_a_at) / RFU FAM26E (11764081_at) / Fold change /veh FAM26E (11764081_at) / RFU ISYNA1 (11749810_s_at) / Fold change /veh ISYNA1 (11749810_s_at) / RFU ACY1 (11761880_at) / Fold change /veh ACY1 (11761880_at) / RFU 11764098_at / Fold change /veh 11764098_at / RFU SAMD14 (11745864_x_at) / Fold change /veh SAMD14 (11745864_x_at) / RFU NPB (11741838_a_at) / Fold change /veh NPB (11741838_a_at) / RFU TMPRSS6 (11731388_a_at) / Fold change /veh TMPRSS6 (11731388_a_at) / RFU KRTAP10-2 (11738614_at) / Fold change /veh KRTAP10-2 (11738614_at) / RFU ARHGAP8 /// PRR5-ARHGAP8 (11727945_x_at) / Fold change /veh ARHGAP8 /// PRR5-ARHGAP8 (11727945_x_at) / RFU KRTAP5-7 /// NADSYN1 (11734609_at) / Fold change /veh KRTAP5-7 /// NADSYN1 (11734609_at) / RFU RASL12 (11751679_a_at) / Fold change /veh RASL12 (11751679_a_at) / RFU CDKN2B (11736163_a_at) / Fold change /veh CDKN2B (11736163_a_at) / RFU PRF1 (11729649_at) / Fold change /veh PRF1 (11729649_at) / RFU, ZNF638 /// ZNF638-IT1 / Fold change vs veh, ZNF638 /// ZNF638-IT1 / RFU, PANK3 / Fold change vs veh, PANK3 / RFU, SH3YL1 / Fold change vs veh, SH3YL1 / RFU, ZEB2 / Fold change vs veh, ZEB2 / RFU, NRIP1 / Fold change vs veh, NRIP1 / RFU, PTTG1IP / Fold change vs veh, PTTG1IP / RFU, CAPN2 / Fold change vs veh, CAPN2 / RFU, MED14 / Fold change vs veh, MED14 / RFU, SNORA58 / Fold change vs veh, SNORA58 / RFU, C1orf63 / Fold change vs veh, C1orf63 / RFU, LRRFIP1 / Fold change vs veh, LRRFIP1 / RFU, NDUFAF7 / Fold change vs veh, NDUFAF7 / RFU, SLC12A2 / Fold change vs veh, SLC12A2 / RFU, IBTK / Fold change vs veh, IBTK / RFU, ESF1 / Fold change vs veh, ESF1 / Fold change vs veh, TMEM50B / RFU, TAOK1 / Fold change vs veh, TAOK1 / RFU, ACBD3 / Fold change vs veh, ACBD3 / RFU, TMA16 / Fold change vs veh, TMA16 / RFU, RWDD3 / Fold change vs veh, RWDD3 / RFU, BCAT1 / Fold change vs veh, BCAT1 / RFU, EDEM3 / Fold change vs veh, EDEM3 / RFU, TMEM33 / Fold change vs veh, TMEM33 / RFU, WDR75 / Fold change vs veh, WDR75 / RFU, AHCTF1 / Fold change vs veh, AHCTF1 / RFU, TFRC / Fold change vs veh, TFRC / RFU, ZDHHC17 / Fold change vs veh, ZDHHC17 / RFU, NOM1 / Fold change vs veh, NOM1 / RFU, ARL8B / Fold change vs veh, ARL8B / RFU, ZBTB11 / Fold change vs veh, ZBTB11 / RFU, TAMM41 / Fold change vs veh, TAMM41 / RFU, KIAA1704 /// LOC100996395 / Fold change vs veh, KIAA1704 /// LOC100996395 / RFU, ING1 / Fold change vs veh, ING1 / RFU, TRMT61B / Fold change vs veh, TRMT61B / RFU, FUBP3 / Fold change vs veh, FUBP3 / RFU, TP53 / Fold change vs veh, TP53 / RFU, TNKS2 / Fold change vs veh, TNKS2 / RFU, ZFP14 / Fold change vs veh, ZFP14 / RFU, ACTR2 / Fold change vs veh, ACTR2 / RFU, PPP3R1 / Fold change vs veh, PPP3R1 / RFU, PIK3R1 / Fold change vs veh, PIK3R1 / RFU, HNRNPA1 / Fold change vs veh, HNRNPA1 / RFU, RNF170 / Fold change vs veh, RNF170 / RFU, ZNF28 / Fold change vs veh, ZNF28 / RFU, RNGTT / Fold change vs veh, RNGTT / RFU, OGT / Fold change vs veh, OGT / RFU, BRD1 / Fold change vs veh, BRD1 / RFU, MARS / Fold change vs veh, MARS / RFU, ZNF655 / Fold change vs veh, ZNF655 / RFU, FAHD1 / Fold change vs veh, FAHD1 / RFU, BDP1 / Fold change vs veh, BDP1 / RFU, LRRCC1 / Fold change vs veh, LRRCC1 / RFU, ARID1A / Fold change vs veh, ARID1A / RFU, ZNF146 / Fold change vs veh, ZNF146 / RFU, ZNF330 / Fold change vs veh, ZNF330 / RFU, GPN3 / Fold change vs veh, GPN3 / RFU, C9orf123 / Fold change vs veh, C9orf123 / RFU, N4BP2L2 / Fold change vs veh, N4BP2L2 / RFU, ARFIP1 / Fold change vs veh, ARFIP1 / RFU, FAM179B / Fold change vs veh, FAM179B / RFU, BCL10 / Fold change vs veh, BCL10 / RFU, UHRF1BP1L / Fold change vs veh, UHRF1BP1L / RFU, BET1 / Fold change vs veh, BET1 / RFU, CNOT2 / Fold change vs veh, CNOT2 / RFU, ZNF268 / Fold change vs veh, ZNF268 / Fold change vs veh, ZNF507 / RFU, DGCR2 / Fold change vs veh, DGCR2 / RFU, WDSUB1 / Fold change vs veh, WDSUB1 / Fold change vs veh, HSP90B1 /// MIR3652 / RFU, ADSS / Fold change vs veh, ADSS / RFU, GK / Fold change vs veh, GK / RFU, ZNF148 / Fold change vs veh, ZNF148 / RFU, TAF9 / Fold change vs veh, TAF9 / RFU, SLC1A5 / Fold change vs veh, SLC1A5 / RFU, SLMO2 / Fold change vs veh, SLMO2 / RFU, ABCC4 / Fold change vs veh, ABCC4 / RFU, LOC101060439 /// RAP1B / Fold change vs veh, LOC101060439 /// RAP1B / RFU, RFX7 / Fold change vs veh, RFX7 / RFU, GTPBP10 / Fold change vs veh, GTPBP10 / RFU, CNEP1R1 / Fold change vs veh, CNEP1R1 / RFU, BIVM-ERCC5 /// ERCC5 / Fold change vs veh, BIVM-ERCC5 /// ERCC5 / RFU, ILF3 / Fold change vs veh, ILF3 / RFU 11762660_at / Fold change /veh 11762660_at / RFU VCAN (11757783_s_at) / Fold change /veh VCAN (11757783_s_at) / RFU DDX43 (11728927_at) / Fold change /veh DDX43 (11728927_at) / RFU KRT8 (11758188_x_at) / Fold change /veh KRT8 (11758188_x_at) / RFU NKD1 (11759106_at) / Fold change /veh NKD1 (11759106_at) / RFU SRD5A1 (11742802_a_at) / Fold change /veh SRD5A1 (11742802_a_at) / RFU TPSAB1 /// TPSB2 (11721975_s_at) / Fold change /veh TPSAB1 /// TPSB2 (11721975_s_at) / RFU GSTM3 (11746129_a_at) / Fold change /veh GSTM3 (11746129_a_at) / RFU IL23R (11737362_x_at) / Fold change /veh IL23R (11737362_x_at) / RFU TMEM51 (11727254_a_at) / Fold change /veh TMEM51 (11727254_a_at) / RFU PIWIL2 (11732686_x_at) / Fold change /veh PIWIL2 (11732686_x_at) / RFU ORM1 (11744905_x_at) / Fold change /veh ORM1 (11744905_x_at) / RFU CCDC152 (11743942_at) / Fold change /veh CCDC152 (11743942_at) / RFU ECM1 (11717891_a_at) / Fold change /veh ECM1 (11717891_a_at) / RFU IL23R (11748794_a_at) / Fold change /veh IL23R (11748794_a_at) / RFU TNFAIP8L3 (11732012_x_at) / Fold change /veh TNFAIP8L3 (11732012_x_at) / RFU MBOAT4 (11741988_at) / Fold change /veh MBOAT4 (11741988_at) / RFU 11764193_at / Fold change /veh 11764193_at / RFU TMEM53 (11763286_at) / Fold change /veh TMEM53 (11763286_at) / RFU MAGEB2 (11727129_at) / Fold change /veh MAGEB2 (11727129_at) / RFU TMEM200A (11744735_a_at) / Fold change /veh TMEM200A (11744735_a_at) / RFU CCDC152 (11751479_a_at) / Fold change /veh CCDC152 (11751479_a_at) / RFU FAM211A (11726209_a_at) / Fold change /veh FAM211A (11726209_a_at) / RFU RGS16 (11746705_a_at) / Fold change /veh RGS16 (11746705_a_at) / RFU VCAN (11755009_s_at) / Fold change /veh VCAN (11755009_s_at) / RFU RHOB (11743442_s_at) / Fold change /veh RHOB (11743442_s_at) / RFU RGS16 (11720943_a_at) / Fold change /veh RGS16 (11720943_a_at) / RFU RGS16 (11720944_at) / Fold change /veh RGS16 (11720944_at) / RFU, VPS4B / Fold change vs veh, VPS4B / RFU, CREB1 / Fold change vs veh, CREB1 / RFU, DNAJC13 / Fold change vs veh, DNAJC13 / RFU, GNAQ / Fold change vs veh, GNAQ / RFU, CDK5R1 / Fold change vs veh, CDK5R1 / RFU, ZRANB3 / Fold change vs veh, ZRANB3 / RFU, CUL4A / Fold change vs veh, CUL4A / RFU, CCNY / Fold change vs veh, CCNY / RFU, UFL1 / Fold change vs veh, UFL1 / RFU, COG3 / Fold change vs veh, COG3 / RFU, DIAPH2 / Fold change vs veh, DIAPH2 / RFU, SKA2 / Fold change vs veh, SKA2 / RFU, AFF3 / Fold change vs veh, AFF3 / RFU, LMF1 / Fold change vs veh, LMF1 / RFU, IPO11 / Fold change vs veh, IPO11 / RFU, DFFB / Fold change vs veh, DFFB / RFU, FOXP1 / Fold change vs veh, FOXP1 / RFU, CARD8 / Fold change vs veh, CARD8 / RFU, STRN3 / Fold change vs veh, STRN3 / RFU, ADK / Fold change vs veh, ADK / RFU, RASSF2 / Fold change vs veh, RASSF2 / RFU, WIPF1 / Fold change vs veh, WIPF1 / RFU, LARP1B / Fold change vs veh, LARP1B / RFU, RASA1 / Fold change vs veh, RASA1 / RFU, RB1 / Fold change vs veh, RB1 / RFU, PPFIA1 / Fold change vs veh, PPFIA1 / RFU, MAT2A / Fold change vs veh, MAT2A / RFU, CCT5 / Fold change vs veh, CCT5 / RFU, WDR92 / Fold change vs veh, WDR92 / RFU, CUX1 / Fold change vs veh, CUX1 / RFU, TTC7A / Fold change vs veh, TTC7A / RFU, TMEM135 / Fold change vs veh, TMEM135 / RFU, DEPTOR / Fold change vs veh, DEPTOR / RFU, CPM / Fold change vs veh, CPM / RFU, DNAJB6 / Fold change vs veh, DNAJB6 / RFU, CACNA2D3 / Fold change vs veh, CACNA2D3 / RFU, DTX4 / Fold change vs veh, DTX4 / RFU, TFCP2 / Fold change vs veh, TFCP2 / RFU, GMCL1 /// GMCL1P1 / Fold change vs veh, GMCL1 /// GMCL1P1 / RFU, AEBP2 / Fold change vs veh, AEBP2 / RFU, SNHG1 /// SNORD22 /// SNORD25 /// SNORD26 /// SNORD27 /// SNORD28 /// SNORD29 /// SNORD31 / Fold change vs veh, SNHG1 /// SNORD22 /// SNORD25 /// SNORD26 /// SNORD27 /// SNORD28 /// SNORD29 /// SNORD31 / Fold change (Aza/veh), C12orf56 (ProbeSet 11735607_a_at) / Fold change (ACY-1035/veh), C12orf56 (ProbeSet 11735607_a_at) / Fold change (Aza/veh), FGFR1OP (ProbeSet 11751329_s_at) / Fold change (ACY-1035/veh), FGFR1OP (ProbeSet 11751329_s_at) / Fold change (Aza/veh), VPS36 (ProbeSet 11739960_a_at) / Fold change (ACY-1035/veh), VPS36 (ProbeSet 11739960_a_at) / RFU SYPL1 (11715823_x_at) / Fold change /veh SYPL1 (11715823_x_at) / RFU IGFBP7 (11715501_s_at) / Fold change /veh IGFBP7 (11715501_s_at) / RFU REEP3 (11722064_at) / Fold change /veh REEP3 (11722064_at) / RFU IGLL1 (11728026_x_at) / Fold change /veh IGLL1 (11728026_x_at): dose or concentration left out as unconfirmed
Conditions: ProbeSet 11728879_at; LIST B

Nc1ncn([C@@H]2O[C@H](CO)[C@@H](O)[C@H]2O)c(=O)n1 [azacitidine]
Fold change vs veh, PPP3R1: 0.88
